From paper PMC4155686, “Oleoyl Coenzyme A Regulates Interaction of Transcriptional Regulator RaaS (Rv1219c) with DNA in Mycobacteria*” (The Journal of Biological Chemistry, 2014)

Biological target: RaaS (Rv1219c) (Mycobacterium tuberculosis, UniProt O86312)
Experiment: biochemical

RaaS (Rv1219c), sequence (O86312 whole entry): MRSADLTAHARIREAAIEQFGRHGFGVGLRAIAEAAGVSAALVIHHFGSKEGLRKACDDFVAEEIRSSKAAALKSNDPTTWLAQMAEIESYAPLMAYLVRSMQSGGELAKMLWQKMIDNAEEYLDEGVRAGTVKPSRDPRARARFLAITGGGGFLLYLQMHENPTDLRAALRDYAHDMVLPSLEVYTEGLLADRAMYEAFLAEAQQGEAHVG

CCCCCCCC/C=C\CCCCCCCC(=O)SCCNC(=O)CCNC(=O)[C@H](O)C(C)(C)COP(=O)(O)OP(=O)(O)OC[C@H]1O[C@@H](n2cnc3c(N)ncnc32)[C@H](O)[C@@H]1OP(=O)(O)O [oleoyl-CoA]
Kd: 3.65 ± 0.28 µM
